Consider 27 compounds from patent US20250059141A1, “TLR MODULATOR AND USE THEREOF” (DUALITY BIOLOGICS (SUZHOU) CO., LTD., priority 2021, published 2025).

Like-named read-outs stand apart in the source and are kept apart here.

The subject of assay [1] is TNF-α production in human PBMCs. The assay can be described thus: Induction of TNF-α in human PBMCs (ELISA). Type of assay: cell-based. As to conditions: PBMC, 24 h, read-out: PBMC assay TNFa EC50. The protocol: In this example, the induction activity of the compounds of the present application on human PBMCs for TNF-α and IFN-α production was assessed in human PBMCs (human peripheral blood mononuclear cells). The human PBMCs were purchased from Shanghai Saily Biotechnology Co., Ltd. (Cat. No. XFB—HP100B). PBMC cells were treated with the compounds. The compounds of the present application are diluted in DMSO, for example, to about 15 mM. The reference compound was added to the plates in sequence after diluted to 5 mg/mL. The compounds were serially 3- or 4-fold diluted to 8 concentrations and added to plates in duplicate (Table 2-1 for serial 3-fold dilutions and Table 2-2 for serial 4-fold dilutions). For the negative control wells, DMSO was added at 0.4 μL/well, and a 5 mg/mL reference compound solution was added to the positive control wells at 0.4 μL/well. The final concentration of DMSO was 0.2%. Frozen human PBMCs in cryopreservation tubes were quickly thawed in a 37° C. water bath and transferred into 50-mL centrifuge tubes. Prewarmed RPMI1640 medium was gradually added and the mixture was well mixed and centrifuged for 15 min before the supernatant was discarded. The cells were resuspended in a culture medium and counted. The cell suspension was adjusted to 2.5×10^6 cells/mL with the culture medium. Diluted cells were added at 200 μL/500,000 cells/well in 96-well plates containing the compounds. The cell plates were incubated at 37° C./5% CO2 for 24 h.
The plate was then washed thrice. […] Termination of reaction: The reaction was terminated by quickly adding the stop solution at 100 μL/well. Plate reading: The reading at wavelength 450 nm was detected by an M2e instrument within 10 min after the termination.
Compound activity data analysis: The OD450 values were converted to TNF-α and IFN-α contents by GraphPad Prism software analysis and fitted to give dose-response curves of the compounds. The EC50 values for the compounds were calculated, where the Emax values are the maximal values for TNF-α and IFN-α.
In general terms: In an ELISA, binding on a coated surface is turned into a signal by an enzyme label.

For assay [2], the target named is T1, hTLR8 (human Toll-like receptor 8) (Homo sapiens, UniProt Q9NR97).
T1 construct: host or cells: HEK-Blue hTLR8 (HEK293-derived reporter cells)
T1 sequence (Q9NR97 27-1041): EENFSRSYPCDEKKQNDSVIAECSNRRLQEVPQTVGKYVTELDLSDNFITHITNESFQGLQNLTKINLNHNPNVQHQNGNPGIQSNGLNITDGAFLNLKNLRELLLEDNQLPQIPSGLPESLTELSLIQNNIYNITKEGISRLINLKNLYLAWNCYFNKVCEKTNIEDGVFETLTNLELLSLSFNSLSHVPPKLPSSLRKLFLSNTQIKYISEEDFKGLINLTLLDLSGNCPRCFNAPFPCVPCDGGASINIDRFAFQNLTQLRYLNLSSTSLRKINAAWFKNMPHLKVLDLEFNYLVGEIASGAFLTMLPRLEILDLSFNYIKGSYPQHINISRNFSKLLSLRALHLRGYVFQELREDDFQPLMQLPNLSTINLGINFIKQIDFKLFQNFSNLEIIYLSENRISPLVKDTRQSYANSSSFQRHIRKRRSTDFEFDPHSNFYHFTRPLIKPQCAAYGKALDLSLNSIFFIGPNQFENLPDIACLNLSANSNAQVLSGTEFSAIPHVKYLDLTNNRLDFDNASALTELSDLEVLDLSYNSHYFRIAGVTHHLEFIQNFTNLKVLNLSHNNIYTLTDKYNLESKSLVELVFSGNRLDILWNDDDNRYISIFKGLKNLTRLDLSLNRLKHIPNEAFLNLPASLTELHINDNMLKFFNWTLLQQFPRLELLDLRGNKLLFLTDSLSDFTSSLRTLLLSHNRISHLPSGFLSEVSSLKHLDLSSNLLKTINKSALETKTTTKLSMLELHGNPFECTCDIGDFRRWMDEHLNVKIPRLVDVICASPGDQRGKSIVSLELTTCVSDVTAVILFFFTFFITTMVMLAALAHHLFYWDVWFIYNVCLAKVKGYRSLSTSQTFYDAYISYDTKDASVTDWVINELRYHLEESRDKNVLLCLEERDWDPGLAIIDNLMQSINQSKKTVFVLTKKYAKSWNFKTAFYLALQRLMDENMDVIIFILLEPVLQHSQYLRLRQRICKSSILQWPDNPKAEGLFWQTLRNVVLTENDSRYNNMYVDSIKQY
Briefly: HEK-Blue hTLR8 reporter assay (QUANTI-Blue, OD650). To be noted: HEK-Blue hTLR8 cells, 24 h, read-out: Reporter assay TLR8 EC50. In kind it is cell-based. As for the experimental part: In this example, the agonistic activity of the compounds of the present application on hTLR7 (human Toll-like receptor 7) and hTLR8 (human Toll-like receptor 8) was assessed; the induction activity of the compounds on human PBMCs for TNF-α and IFN-α production was assessed in human PBMCs (human peripheral blood mononuclear cells).
All compounds were formulated in DMSO into 30 mM stock solutions and preserved at 4° C. The reference compound ([…], Cat. No. tlrl-r848-5) was purchased from InvivoGen and formulated into a 5 mg/mL stock solution in DMSO and preserved in a freezer at −20° C. HEK-Blue hTLR7 and HEK-Blue hTLR8 cell lines were purchased from InvivoGen, and human PBMCs were purchased from Shanghai Saily Biotechnology Co., Ltd. (Cat. No. XFB—HP100B).
The major instruments used in this study were multifunctional microplate reader Flexstation III (Molecular Device), Envision (Perkin Elmer), M2e (Molecular Device), and Echo555 (Labcyte). 2.1 Agonistic activity of compounds on hTLR7 (human Toll-like receptor 7) and hTLR8 (human Toll-like receptor 8)
Compound dilution: The compounds of the present application are diluted in DMSO, for example, to about 15 mM. The reference compound was added to the plates in sequence after dilution. The compounds were serially 3-fold diluted to 10 concentrations and added to 96-well plates in duplicate.
For the negative control wells, DMSO was added at 0.2 μL/well, and the reference compound was added to the positive control wells. The final concentration of DMSO was 0.2%.
Cell plating: When an 80% confluence of HEK Blue hTLR7&8 cells in the culture flask was observed under a microscope, the culture medium was discarded, 10 mL of detection medium was added, and the cells were separated by pipetting. The cells were counted on a cytometer and diluted to 500,000 cells/mL. The cells were plated at 100 μL/50,000 cells/well in the 96-well plates containing the compounds. The compounds and cells were co-incubated at 37° C. in a 5% CO2 incubator for 24 hours.
Compound activity detection: 20 μL of cell supernatant was taken from each well and added to a plate containing QUANTI-Blue™ reagent at 180 μL/well. The plate was incubated at 37° C. for 1 hour, and the absorbance at 650 nm (OD650) was measured on the multifunctional microplate reader Flexstation III.
Compound activity data analysis: The OD650 values were analyzed by GraphPad Prism software and fitted to give dose-response curves of the compounds. The EC50 values of compounds were calculated.
(In a reporter assay the amount or activity of a reporter protein is the signal.)

Setting [3] is: serial 4-fold dilutions, class symbols.

A word on the EC50: it is the concentration giving half of the maximal effect. Take `CCCN(OCc1ccc(N)cc1)C(=O)C1=Cc2ccc(-c3cncc(CO)c3)cc2N=C(N)C1` [Compound 15]: the figures for the EC50 in assay [1] (serial 3-fold dilutions) and in assay [2] were 0.003 µM and < 0.0015 µM, respectively.
In the case of `CCCN(OCc1ccc(N)cc1)C(=O)C1=Cc2ccc(-c3cncc(C(=O)O)c3)cc2N=C(N)C1` [Compound 32], the EC50 in assay [1] (setting [3]) lay within 0.01 to 0.05 µM; in assay [2] (class symbols) it was 0.01 to 0.1 µM.
With `CCCN(OCc1ccc(N)cc1)C(=O)C1=Cc2ccc(-c3cccc(S(N)(=O)=O)c3)cc2N=C(N)C1` [Compound 35], the EC50 was 0.005 µM in assay [1] (serial 3-fold dilutions) and < 0.0015 µM in assay [2].
On to `CCCN(OCc1ccc(N)cc1)C(=O)C1=Cc2ccc(-c3cncc(S(N)(=O)=O)c3)cc2N=C(N)C1` [Compound 36], for which the values for the 50% effective concentration (EC50) in assay [1] (serial 3-fold dilutions) and in assay [2] were 0.0122 µM and 0.00171 µM, respectively.
With `CCCN(OCc1ccc(N)cc1)C(=O)C1=Cc2ccc(C(=O)N3CC(CO)C3)cc2N=C(N)C1` [Compound 37], the concentration giving a half-maximal response (EC50) in assay [1] (setting [3]) is 0.01 to 0.05 µM; in assay [2] (class symbols), 0.01 to 0.1 µM.
Turning to `CCCN(OCc1ccc(N)cc1)C(=O)C1=Cc2ccc(C(=O)Nc3cccnc3)cc2N=C(N)C1` [Compound 40], the EC50 in assay [1] (serial 3-fold dilutions) came out at 0.00908 µM; in assay [2], 0.0025 µM.
As for `CCCN(OCc1ccc(N)cc1)C(=O)C1=Cc2ccc(-c3cccc(S(=O)(=O)N4CC(O)C4)c3)cc2N=C(N)C1` [Compound 41], the EC50 in assay [1] (serial 3-fold dilutions) was 0.0153 µM; in assay [1] (setting [3]), ≤ 0.01 µM; in assay [2], 0.00537 µM.
With `CCCN(OCc1ccc(N)cc1)C(=O)C1=Cc2ccc(-c3ccc(C(=O)N4CC[C@@H](O)C4)cc3)cc2N=C(N)C1` [Compound 42], the 50% effective concentration (EC50) in assay [1] (serial 3-fold dilutions) is 0.037 µM; in assay [1] (setting [3]), 0.01 to 0.05 µM; in assay [2] (class symbols), 0.01 to 0.1 µM.
For `CCCN(OCc1ccc(N)cc1)C(=O)C1=Cc2ccc(-c3ccc4c(c3)C(=O)OC4)cc2N=C(N)C1` [Compound 43], the EC50 in assay [1] (serial 3-fold dilutions) is 0.00804 µM; in assay [2], < 0.0015 µM.
The matching figures for `NC1=Nc2cc(-c3cncc(CO)c3)ccc2C=C(C(=O)N(CC2CC2)OCc2ccc(N)cc2)C1` [Compound 45]: 0.00733 µM and 0.0023 µM.
Regarding `CCCN(OCc1ccc(N)cc1)C(=O)C1=Cc2ccc(C(=O)N3CCC(O)C3)cc2N=C(N)C1` (centres unmarked) [Compound 46], the results for the EC50 in assay [1] (setting [3]) and in assay [2] (class symbols) were 0.01 to 0.05 µM and 0.01 to 0.1 µM, respectively.
As for `CCCN(OCc1ccc(N)cc1)C(=O)C1=Cc2ccc(C(=O)N3CCOC(CO)C3)cc2N=C(N)C1` (centres unmarked) [Compound 47], the EC50 is 0.01 to 0.05 µM in assay [1] (setting [3]) and 0.01 to 0.1 µM in assay [2] (class symbols).
The like results for `CCCN(OCc1ccc(N)cc1)C(=O)C1=Cc2ccc(C(=O)NCCO)cc2N=C(N)C1` [Compound 48] were, in that order, 0.01 to 0.05 µM and 0.01 to 0.1 µM.
On to `CCCN(OCc1ccc(N)cc1)C(=O)C1=Cc2ccc(-c3cncc(Cl)c3)cc2N=C(N)C1` [Compound 49], for which the EC50 is 0.0261 µM in assay [1] (serial 3-fold dilutions) and 0.0066 µM in assay [2].
The matching figures for `CCCN(OCc1ccc(N)cc1)C(=O)C1=Cc2ccc(-c3cncc(C#N)c3)cc2N=C(N)C1` [Compound 50]: 0.0077 µM and 0.0015 µM.
The like results for `CCCN(OCc1ccc(N)cc1)C(=O)C1=Cc2ccc(-c3ccc(C#N)nc3)cc2N=C(N)C1` [Compound 51] were, in that order, 0.0173 µM and 0.0056 µM.
The like results for `CCCN(OCc1ccc(N)cc1)C(=O)C1=Cc2ccc(-c3cncc(N)c3)cc2N=C(N)C1` [Compound 52] were, in that order, 0.00861 µM and 0.0044 µM.
In the case of `CCCN(OCc1ccc(N)cc1)C(=O)C1=Cc2ccc(-c3cncc(C(F)(F)F)c3)cc2N=C(N)C1` [Compound 53], the EC50 in assay [1] (setting [3]) fell in the range of 0.01 to 0.05 µM; in assay [2] (class symbols) it was 0.01 to 0.1 µM.
In the case of `CCCN(OCc1ccc(N)cc1)C(=O)C1=Cc2ccc(-c3cncc(CN)c3)cc2N=C(N)C1` [Compound 54], the EC50 in assay [1] (serial 3-fold dilutions) was 0.00398 µM; in assay [2] it was < 0.0015 µM.
The matching figures for `CCCN(OCc1ccc(N)cc1)C(=O)C1=Cc2ccc(-c3ccc(N4CCOCC4)nc3)cc2N=C(N)C1` [Compound 55]: 0.0335 µM and 0.0023 µM.
The like results for `CCCN(OCc1ccc(N)cc1)C(=O)C1=Cc2ccc(-c3cncc(S(C)(=O)=O)c3)cc2N=C(N)C1` [Compound 56] were, in that order, 0.00735 µM and < 0.0015 µM.
In the case of `NC1=Nc2cc(-c3cncc(CO)c3)ccc2C=C(C(=O)N(CCC(F)(F)F)OCc2ccc(N)cc2)C1` [Compound 58], the EC50 in assay [1] (setting [3]) and in assay [2] (class symbols) was ≤ 0.01 µM throughout.
Take `CCCN(OCc1ccc(N)cc1Cl)C(=O)C1=Cc2ncc(-c3cncc(CO)c3)cc2N=C(N)C1` [Compound 59]: the EC50 in assay [1] (setting [3]) and in assay [2] (class symbols) was ≤ 0.01 µM each time.
As for `CCCN(OCc1ccc(N)cc1OC)C(=O)C1=Cc2ncc(-c3cncc(CO)c3)cc2N=C(N)C1` [Compound 60], the EC50 in assay [1] (setting [3]) and in assay [2] (class symbols) was ≤ 0.01 µM each time.
Consider `CCCN(OCc1ccc(N)cc1)C(=O)C1=Cc2ncc(-c3cncc(CO)c3)cc2N=C(N)C1` [Compound 61], for which the half-maximal effective concentration (EC50) in assay [1] (setting [3]) and in assay [2] (class symbols) was ≤ 0.01 µM throughout.
For the compound `CCCN(OCc1ccc(N)cc1)C(=O)C1=Cc2ccc(-c3cncc(CO)c3)nc2N=C(N)C1` [Compound 62], the EC50 in assay [1] (setting [3]) and in assay [2] (class symbols) was ≤ 0.01 µM in each case.
Consider `CCCN(OCc1ccc(N)cc1)C(=O)C1=Cc2ccc(-c3cnc4c(c3)C(=O)OC4)nc2N=C(N)C1` [Compound 63], for which the EC50 in assay [1] (setting [3]) and in assay [2] (class symbols) was ≤ 0.01 µM each time.
